Test results: publication PMC12040169 (PLOS Biology, 2025)

Assay: in vitro
Conditions: human, hela cells, % viability

In order of rising viability at 28.5 h, 10 µM:
1. CS(=O)(=O)c1ncc(Cl)c(C(=O)N(Cc2ccccc2)Cc2ccco2)n1 [CBK269603]  29.3%
2. Cc1cc2c(cc1C)NC(CC(=O)Nc1cccc(Br)c1)C(=O)N2 (stereo not drawn) [CBK269548]  73.3%
3. COc1cc(NC(=O)c2cc3c4c(sc3nc2N)CN(C)CC4)c(OC)c(OC)c1 [CBK269597]  77.1%
4. O=c1c2c3nc4ccccc4nc3n(CCc3ccccc3)c2ncn1Cc1ccco1 [CBK269502]  77.5%
5. COc1ccc(N2CCN(Cc3nc4c(c(=O)n(C)c(=O)n4C)n3Cc3cccc(C)c3)CC2)cc1 [CBK269552]  78.4%
6. COc1ccccc1/C=C/c1nn2c(C(C)C)nnc2s1 [CBK269501]  79.3%
7. Cc1ccc(S(=O)(=O)c2nc(NCCN3CCOCC3)sc2Cl)cc1 [CBK269615]  79.7%
8. O=C(Nc1sc2c(c1C(=O)NCc1cccnc1)CCC2)c1ccco1 [CBK269599]  81%
9. O=C(Nc1cccnc1)C1CCN(S(=O)(=O)c2ccc(Oc3ccccc3)cc2)CC1 [CBK269621]  81.8%
10. O=C(C1CCN(S(=O)(=O)c2ccc3ccccc3c2)CC1)N1CCC(Cc2ccccc2)CC1 [CBK269558]  83%
11. COc1ccc(C)cc1S(=O)(=O)N(CC(=O)O)c1ccc(C)c(Cl)c1 [CBK269655]  83.3%
12. CCC(=O)Nc1nonc1-c1nc2ccccc2n1Cc1ccc(F)cc1Cl [CBK269608]  84.1%
13. c1ccc(-c2nc3sc4c(ncn5cnnc45)c3c3c2CCC3)cc1 [CBK269566]  84.3%
14. N#Cc1ccccc1CSc1nc2ccc([N+](=O)[O-])cc2[nH]1 [CBK269589]  84.5%
15. CC(=O)CSc1nc2c(c(=O)n(C)c(=O)n2C)n1CCCc1ccccc1 [CBK269581]  84.6%
16. COc1ccccc1N1CC(C(=O)Nc2ccc(C(=O)O)cc2)CC1=O (stereo not drawn) [CBK269606]  84.9%
17. Cn1c(=O)c2c(nc(CN3CCN(c4ccccc4)CC3)n2Cc2ccccc2)n(C)c1=O [CBK269557]  85.1%
18. CNc1nc(SCC(=O)Nc2ccc(Cl)c(Cl)c2)nc(N2CCOCC2)n1 [CBK269559]  85.3%
19. CCCCn1cnc2c(c1=O)c1nc3ccccc3nc1n2CCc1ccc(OC)cc1 [CBK269538]  85.7%
20. OCc1ccc(OCCCOc2cccc3cccnc23)cc1 [CBK269674]  85.8%
21. Cc1ccnc(SCc2c(Cl)cccc2[N+](=O)[O-])n1 [CBK269632]  86%
22. CC(NC(=O)c1ccccc1)c1nnc(SCC(=O)N2CCOCC2)n1C (stereo not drawn) [CBK269647]  86%
23. CCn1c(CCCNC=O)nc2ccccc21 [CBK269551]  86.2%
24. Cn1c(=O)c2[nH]c(CN3CCN(Cc4ccccc4)CC3)nc2n(C)c1=O [CBK269519]  86.3%
25. CCOC(=O)Cn1nc([N+](=O)[O-])c(Cl)c1C [CBK269605]  86.4%
26. COc1cccc(-c2coc3cc4oc(=O)c(CC(=O)O)c(C)c4cc23)c1 [CBK269520]  86.6%
27. COC(=O)Cn1c(CN2CCN(c3cccc(Cl)c3)CC2)nc2c1c(=O)n(C)c(=O)n2C [CBK269598]  86.7%
28. Cn1c(=O)c2c(nc(CN3CCCCC3)n2CC(=O)c2ccccc2)n(C)c1=O [CBK269563]  87.1%
29. COc1cc(CNC23CC4CC(CC(C4)C2)C3)c(Cl)cc1OCC(=O)O [CBK269567]  87.6%
30. O=C(COc1ccc(S(=O)(=O)N2CCCCC2)cc1Cl)N1CCc2ccccc2C1 [CBK269510]  88%
31. CC(Oc1ccccc1)C(=O)Nc1ccccc1NC(=O)c1ccco1 (stereo not drawn) [CBK269636]  88.4%
32. CCN(CC(=O)NCc1ccncc1)S(=O)(=O)c1ccccc1 [CBK269537]  88.7%
33. Cc1ccc(C(=O)C2=C(O)C(=O)N(CCCN(C)C)C2c2ccccn2)o1 (stereo not drawn) [CBK269575]  89.1%
34. Cc1ccc(SCCN2CCN(C)CC2)cc1 [CBK269631C]  89.2%
35. COc1ccc([N+](=O)[O-])cc1CSc1nnc(-c2ccco2)n1C [CBK269671]  89.3%
36. NC(=O)C1CCN(CC(O)COc2ccc(-c3ccccc3)cc2)CC1 (stereo not drawn) [CBK269528]  89.9%
37. COc1cc(CNC(C)(C)CO)c(Cl)cc1OC(C)C [CBK269542]  89.9%
38. O=C(Nc1cccnc1)c1cccnc1C(=O)O [CBK269663]  90.1%
39. CCN(CC(=O)NCc1ccccn1)S(=O)(=O)c1ccccc1 [CBK269546]  90.2%
40. CCN1CCN(S(=O)(=O)c2cccc3c(S(=O)(=O)N4CCN(CC)CC4)cccc23)CC1 [CBK269611]  90.4%
41. CN1CCN(CCCOc2ccccc2OCc2ccccc2)CC1 [CBK269630C]  90.4%
42. Clc1ccc(-c2ccc(CNCCCN3CCOCC3)o2)cc1 [CBK269562C]  90.5%
43. COc1cc(CNc2nn[nH]n2)ccc1OCc1ccc(F)cc1Cl [CBK269536]  90.6%
44. O=C(CC(C(=O)O)n1cccn1)c1ccc(Br)cc1 (stereo not drawn) [CBK269541]  90.8%
45. Cn1c(=O)c2c(nc(CN3CCN(Cc4ccccc4)CC3)n2CCCc2ccccc2)n(C)c1=O [CBK269582]  90.9%
46. Cc1ccc(Cn2c(CN3CCOCC3)nc3c2c(=O)n(C)c(=O)n3C)cc1 [CBK269583]  91.1%
47. O=C(Nc1ccc(S(=O)(=O)NCc2ccncc2)cc1)c1ccccc1Cl [CBK269664]  91.5%
48. CC(C)(C)NC(=O)Cn1cnc2c(cnn2-c2ccccc2)c1=O [CBK269586]  91.6%
49. O=C(CN1CCN(S(=O)(=O)N2CCCCC2)CC1)Nc1ccc(Br)cc1 [CBK269515]  91.7%
50. Cc1cc(S(=O)(=O)NCCCn2ccnc2)c(C)cc1Br [CBK269525]  91.8%
51. Cn1c(SCc2nnc(-c3ccccc3)o2)nnc1C(O)c1ccccc1 (stereo not drawn) [CBK269640]  92.3%
52. Cn1c(=O)[nH]c(=O)c2c1nc(NC1CCCCC1)n2CCCc1ccccc1 [CBK269500]  92.7%
53. CC(C)CNc1nc(SCC(N)=O)nc(N(C)C)n1 [CBK269579]  93.8%
54. CC(=O)N1CCN(c2ccc(NC(=O)c3cccc4c(Br)cccc34)cc2Cl)CC1 [CBK269624]  93.8%
55. Cc1cc(Cl)cc(Br)c1OCCN1CCN(C)CC1 [CBK269668C]  93.9%
56. Cn1c(COc2ccccc2)nnc1SCc1nnc(-c2ccccc2)o1 [CBK269628]  94.1%
57. O=C(Nc1cccc(Cl)c1)Nc1ccc(C(=O)O)c(O)c1 [CBK269518]  94.2%
58. CCN1CCN(c2ccc(NC(=O)Cn3cnc4c(=O)n(C)c(=O)n(C)c43)cc2Cl)CC1 [CBK269535]  94.3%
59. O=C(O)c1ccc(CNCc2ccc(-c3ccc(Cl)cc3)o2)cc1 [CBK269619C]  94.7%
60. COC(=O)c1cccc(COC(=O)c2ccc3nc(C)c(C)nc3c2)c1 [CBK269641]  95.2%
61. Cc1cccc(-c2nnc(-c3cccc(NC(=O)COc4ccccc4)c3)o2)c1 [CBK269659]  95.8%
62. Cc1cccnc1NC(=O)c1ccc(NCCc2ccccc2)c([N+](=O)[O-])c1 [CBK269543]  96.1%
63. CN1CCN(Cc2nc3c(c(=O)n(C)c(=O)n3C)n2CCc2ccccc2)CC1 [CBK269507]  96.2%
64. O=C(NCCCN1CCOCC1)NC(=O)c1ccc(Cl)cc1 [CBK269531]  96.4%
65. Cn1c(=O)c2c(nc(CN3CCCCC3)n2CCCc2ccccc2)n(C)c1=O [CBK269521]  96.5%
66. CN1CCN(C(=O)CN(CC(=O)N2CCN(C)CC2)S(=O)(=O)c2ccc(Cl)cc2)CC1 [CBK269627]  96.6%
67. FC(F)(F)c1cccc(OCCN2CCOCC2)c1 [CBK269669C]  96.8%
68. O=C(COc1ccc(S(=O)(=O)N2CCCCC2)cc1Cl)Nc1ccc2c(c1)OCCO2 [CBK269540]  97%
69. Cc1nc2ccc(C(=O)OCc3ccc(S(=O)(=O)Cc4ccccc4)cc3)cc2nc1C [CBK269661]  97.6%
70. COc1ccc(NC(=O)c2ccc3c(c2)C(=O)N(Cc2ccncc2)C3=O)cc1 [CBK269660]  97.7%
71. COc1ccc(Cl)cc1S(=O)(=O)N1CCC(C(N)=O)(N2CCCCC2)CC1 [CBK269571]  97.9%
72. Cc1ccc(S(=O)(=O)N2CCOCC2)cc1C(=O)NCCc1ccccc1 [CBK269658]  99%
73. Cc1cc(C)cc(OCC(=O)Nc2ccc3[nH]c(=O)[nH]c3c2)c1 [CBK269676]  99.5%
74. CCc1ccc(C(=O)NC(Cc2c[nH]c3ccccc23)C(=O)O)cc1 (stereo not drawn) [CBK269556]  101%
75. Cc1ccc2cc(CN(CC(C)C)S(C)(=O)=O)c(O)nc2c1 [CBK269593]  101%
76. Cn1c(=O)[nH]c(=O)c2c1nc(N1CCN(Cc3ccccc3)CC1)n2CCCc1ccccc1 [CBK269529]  104%
77. CN1CCN(Cc2nc3c([nH]2)c(=O)n(C)c(=O)n3C)CC1 [CBK269578]  104%
78. CCCC(=O)Nc1cccc(NC(=O)c2nc[nH]n2)c1 [CBK269604]  104%
79. CCOc1cc(-c2noc(CCC(=O)N3CCN(C)CC3)n2)ccc1OC [CBK269513]  105%
80. Cn1c(=O)c2c(nc(CN3CCOCC3)n2CCN2CCOCC2)n(C)c1=O [CBK269560]  106%
81. COc1cccc(/C=C/c2nc(C#N)c(NCCCN3CCOCC3)o2)c1 [CBK269506]  107%
82. COc1ccccc1NC(=O)C(c1ccccc1)N1CCOCC1 (stereo not drawn) [CBK269561]  107%
83. O=C(C1=C(O)C(=O)N(CCN2CCOCC2)C1c1ccccn1)c1cc2ccccc2o1 (stereo not drawn) [CBK269576]  107%
84. Cc1ccc2[nH]c(SCc3nc(-c4cccs4)no3)nc2c1 [CBK269509]  108%
85. COc1ccc(NC(=O)COc2noc3nc(C)c(C)c(C)c23)cc1OC [CBK269526]  108%
86. COc1ccc(CNc2cccc(C(=O)O)c2C)cc1OC [CBK269634]  109%
87. Cc1cc(OC(C)C(=O)NCc2ccccn2)ccc1Cl (stereo not drawn) [CBK269617]  110%
